Source: patent publication US6121257A, “Sulfamate containing macrocyclic immunomodulators” (Abbott Laboratories, priority 1999, dated 2000)
pIC50: −log10 of the molar value.

test system: human mixed lymphocyte reaction (MLR); test: human mixed lymphocyte reaction (MLR) assay; type: cell-based; conditions: Table 1
Description: The immunosuppressant activity of the compounds of the present invention was determined using the human mixed lymphocyte reaction (MLR) assay described by Kino, T. et al., in Transplantation Proceedings, XIX(5):36-39, Suppl. 6 (1987), hereby incorporated by reference.

Structure (SMILES)	pIC50
CC[C@@H]1/C=C(\C)C[C@H](C)C[C@H](OC)[C@H]2O[C@@](O)(C(=O)C(=O)N3CCCC[C@H]3C(=O)O[C@H](/C(C)=C/[C@@H]3CC[C@@H](OS(=O)(=O)NC(=O)OC4CCCCC4)[C@H](OC)C3)[C@H](C)[C@@H](O)CC1=O)[C@H](C)C[C@@H]2OC [Example 6, (1R,9S,12S,13R,14S,17R,21S,23S,24R,25S,27R)-12-((E)-2-{(1R,3R,4R)-4-[({[(cyclohexyloxy)carbonyl]amino}sulfonyl)oxy]-3-methoxycyclohexyl}-1-methylethenyl)-17-ethyl-1,14-dihydroxy-23,25-dimethoxy-13,19,21,27-tetramethyl-2,3,10,16-tetraoxo-11,28-dioxa-4-azatricyclo[22.3.1.0^4,9]octacos-18-ene]	8.33
CC[C@@H]1/C=C(\C)C[C@H](C)C[C@H](OC)[C@H]2O[C@@](O)(C(=O)C(=O)N3CCCC[C@H]3C(=O)O[C@H](/C(C)=C/[C@@H]3CC[C@@H](OS(=O)(=O)NC(=O)OC4CCCC4)[C@H](OC)C3)[C@H](C)[C@@H](O)CC1=O)[C@H](C)C[C@@H]2OC [Example 5, (1R,9S,12S,13R,14S,17R,21S,23S,24R,25S,27R)-12-((E)-2-{(1R,3R.4R)-4-[({[(cyclopentyloxy)carbonyl]amino}sulfonyl)oxy]-3-methoxycyclohexyl}-1-methylethenyl)-17-ethyl-1,14-dihydroxy-23,25-dimethoxy-13,19,21,27-tetramethyl-2,3,10,16-tetraoxo-11,28-dioxa-4-azatricyclo[22.3.1.0^4,9]octacos-18-ene]	7.58
CC[C@@H]1/C=C(\C)C[C@H](C)C[C@H](OC)[C@H]2O[C@@](O)(C(=O)C(=O)N3CCCC[C@H]3C(=O)O[C@H](/C(C)=C/[C@@H]3CC[C@@H](OS(=O)(=O)NC(=O)OCc4ccccn4)[C@H](OC)C3)[C@H](C)[C@@H](O)CC1=O)[C@H](C)C[C@@H]2OC [Example 10, (1R,9S,12S.13R,14S,17R,21S,23S,24R,25S,27R)-17-ethyl-1,14-dihydroxy-23,25-dimethoxy-12-((E)-2-[(1R,3R,4R)-3-methoxy-4-[({[(2-pyridinylmethoxy)carbonyl]amino}sulfonyl)oxy]cyclohexyl]-1-methylethenyl)-13,19,21,27-tetramethyl-2,3,10,16-tetraoxo-11,28-dioxa-4-azatricyclo[22.3.1.0^4,9]octacos-18-ene]	9.80
CC[C@@H]1/C=C(\C)C[C@H](C)C[C@H](OC)[C@H]2O[C@@](O)(C(=O)C(=O)N3CCCC[C@H]3C(=O)O[C@H](/C(C)=C/[C@@H]3CC[C@@H](OS(=O)(=O)NC(=O)OCC45CC6CC(CC(C6)C4)C5)[C@H](OC)C3)[C@H](C)[C@@H](O)CC1=O)[C@H](C)C[C@@H]2OC [Example 13, (1R,9S,12S,13R,14S,17R,21S,23S,24R,25S,27R)-12-((E)-2-{(1R,3R,4R)-4-[({[(1-adamantylmethoxy)carbonyl]amino}sulfonyl)oxy]-3-methoxycyclohexyl}-1-methylethenyl)-17-ethyl-1,14-dihydroxy-23,25-dimethoxy-13,19,21,27-tetramethyl-2,3,10,16-tetraoxo-11,28-dioxa-4-azatricyclo[22.3.1.0^4,9]octacos-18-ene]	7.67
CC[C@@H]1/C=C(\C)C[C@H](C)C[C@H](OC)[C@H]2O[C@@](O)(C(=O)C(=O)N3CCCC[C@H]3C(=O)O[C@H](/C(C)=C/[C@@H]3CC[C@@H](OS(=O)(=O)NC(=O)OCc4ccccc4)[C@H](OC)C3)[C@H](C)[C@@H](O)CC1=O)[C@H](C)C[C@@H]2OC [Example 3, (1R,9S,12S,13R,14S,17R,21 S,23S,24R,25S,27R)-12-((E)-2-{(1R,3R,4R)-4-[({[(benzyloxy)carbonyl]amino]sulfonyl)oxy]-3-methoxycyclohexyl}-1-methylethenyl)-17-ethyl-1,14-dihydroxy-23,25-dimethoxy-13,19,21,27-tetramethyl-2,3,10,16-tetraoxo-11,28-dioxa-4-azatricyclo[22.3.1.0^4,9]octacos-18-ene]	8.40
CC[C@@H]1/C=C(\C)C[C@H](C)C[C@H](OC)[C@H]2O[C@@](O)(C(=O)C(=O)N3CCCC[C@H]3C(=O)O[C@H](/C(C)=C/[C@@H]3CC[C@@H](OS(=O)(=O)NC(=O)OC(C)(C)C)[C@H](OC)C3)[C@H](C)[C@@H](O)CC1=O)[C@H](C)C[C@@H]2OC [Example 4, (1R,9S,12S,13R,14S,17R,21S,23S,24R,25S,27R)-12-{(E)-2-[(1R,3R,4R)-4-({[(tert-butoxycarbonyl)amino]sulfonyl}oxy)-3-methoxycyclohexyl]-1-methylethenyl}-17-ethyl-1,14-dihydroxy-23,25-dimethoxy-13,19,21,27-tetramethyl-2,3,10,16-tetraoxo-11,28-dioxa-4-azatricyclo[22.3.1.0^4,9]octacos-18-ene]	9.00
CC[C@@H]1/C=C(\C)C[C@H](C)C[C@H](OC)[C@H]2O[C@@](O)(C(=O)C(=O)N3CCCC[C@H]3C(=O)O[C@H](/C(C)=C/[C@@H]3CC[C@@H](OS(=O)(=O)NC(=O)OCc4ccncc4)[C@H](OC)C3)[C@H](C)[C@@H](O)CC1=O)[C@H](C)C[C@@H]2OC [Example 8, (1R,9S,12S,13R,14S,17R,21S,23S,24R,25S,27R)-17-ethyl-1,14-dihydroxy-23,25-dimethoxy-12-((E)-2-{(1R,3R,4R)-3-methoxy-4-[({[(4-pyridinylmethoxy)carbonyl]amino}sulfonyl)oxy]cycyclohexyl}-1-methylethenyl)-13,19,21,27-tetramethyl-2,3,10,16-tetraoxo-11,28-dioxa-4-azatricyclo[22.3.1.0^4,9]octacos-18-ene]	10.00

More lines, in order of rising pIC50, values ahead:

pIC50	Structure (SMILES)
7.61	CC[C@@H]1/C=C(\C)C[C@H](C)C[C@H](OC)[C@H]2O[C@@](O)(C(=O)C(=O)N3CCCC[C@H]3C(=O)O[C@H](/C(C)=C/[C@@H]3CC[C@@H](OS(=O)(=O)NC(=O)O[C@@H]4C[C@H](C)CC[C@H]4C(C)C)[C@H](OC)C3)[C@H](C)[C@@H](O)CC1=O)[C@H](C)C[C@@H]2OC [Example 12]
8.02	CC[C@@H]1/C=C(\C)C[C@H](C)C[C@H](OC)[C@H]2O[C@@](O)(C(=O)C(=O)N3CCCC[C@H]3C(=O)O[C@H](/C(C)=C/[C@@H]3CC[C@@H](OS(=O)(=O)NC(=O)OC4CCCCCC4)[C@H](OC)C3)[C@H](C)[C@@H](O)CC1=O)[C@H](C)C[C@@H]2OC [Example 7, (1R,9S,12S,13R,14S,17R,21S,23S,24R,25S,27R)-12-((E)-2-{(1R,3R,4R)-4-[({[(cycloheptyloxy)carbonyl]amino}sulfonyl)oxy]-3-methoxycyclohexyl}-1-methylethenyl)-17-ethyl-1,14-dihydroxy-23,25-dimethoxy-13,19,21,27-tetramethyl-2,3,10,16-tetraoxo-11,28-dioxa-4-azatricyclo[22.3.1.0^4,9]octacos-18-ene]
8.18	CC[C@@H]1/C=C(\C)C[C@H](C)C[C@H](OC)[C@H]2O[C@@](O)(C(=O)C(=O)N3CCCC[C@H]3C(=O)O[C@H](/C(C)=C/[C@@H]3CC[C@@H](OS(=O)(=O)NC(=O)OCc4ccc([N+](=O)[O-])cc4)[C@H](OC)C3)[C@H](C)[C@@H](O)CC1=O)[C@H](C)C[C@@H]2OC [Example 11, (1R,9S,12S,13R,14S,17R,21S,23S,24R,25S,27R)-17-ethyl-1,14-dihydroxy-23,25-dimethoxy-12-[(E)-2-((1R,3R,4R)-3-methoxy-4-{[({[(4-nitrobenzyl)oxy]carbonyl}amino)sulfonyl]oxy}cyclohexyl)-1-methylethenyl]-13,19,21,27-tetramethyl-2,3,10,16-tetraoxo-11,28-dioxa-4-azatricyclo[22.3.1.0^4,9]octacos-18-ene]
8.32	CC[C@@H]1/C=C(\C)C[C@H](C)C[C@H](OC)[C@H]2O[C@@](O)(C(=O)C(=O)N3CCCC[C@H]3C(=O)O[C@H](/C(C)=C/[C@@H]3CC[C@@H](OS(=O)(=O)NC(=O)OCc4cccnc4)[C@H](OC)C3)[C@H](C)[C@@H](O)CC1=O)[C@H](C)C[C@@H]2OC [Example 9, (1R,9S,12S,13R,14S,17R,21S,23S,24R,25S,27R)-17-ethyl-1,14-dihydroxy-23,25-dimethoxy-12-((E)-2-{(1R,3R,4R)-3-methoxy-4-[({[(3-pyridinylmethoxy)carbonyl]amino}sulfonyl)oxy]cyclohexyl}-1-methylethenyl)-13,19,21,27-tetramethyl-2,3,10,16-tetraoxo-11,28-dioxa-4-azatricyclo[22.3.1.0^4,9]octacos-18-ene]
9.14	CC[C@@H]1/C=C(\C)C[C@H](C)C[C@H](OC)[C@H]2O[C@@](O)(C(=O)C(=O)N3CCCC[C@H]3C(=O)O[C@H](/C(C)=C/[C@@H]3CC[C@@H](OS(=O)(=O)NC(=O)OC)[C@H](OC)C3)[C@H](C)[C@@H](O)CC1=O)[C@H](C)C[C@@H]2OC [Example 1, (1R,9S,12S,13R,14S,17R,21S,23S,24R,25S,27R)-17-ethyl-1,14-dihydroxy-23,25-dimethoxy-12-{(E)-2-[(1R,3R,4R)-3-methoxy-4-({[(methoxycarbonyl)amino]sulfonyl)oxy)cyclohexyl]-1-methylethenyl}-13,19,21,27-tetramethyl-2,3,10,16-tetraoxo-11,28-dioxa-4-azatricyclo[22.3.1.0^4,9]octacos-18-ene]
9.24	CCOC(=O)NS(=O)(=O)O[C@@H]1CC[C@@H](/C=C(\C)[C@H]2OC(=O)[C@@H]3CCCCN3C(=O)C(=O)[C@]3(O)O[C@H]([C@@H](OC)C[C@@H](C)C/C(C)=C/[C@@H](CC)C(=O)C[C@H](O)[C@H]2C)[C@@H](OC)C[C@H]3C)C[C@H]1OC [Example 2, (1R,9S12S,13R,14S,17R,21S,23S,24R,25S,27R)-12-{(E)-2-[(1R,3R,4R)-4-({[(ethoxycarbonyl)amino]sulfonyl}oxy)-3-methoxycyclohexyl]-1-methylethenyl}-17-ethyl-1,14-dihydroxy-23,25-dimethoxy-13,19,21,27-tetramethyl-2,3,10,16-tetraoxo-11,28-dioxa-4-azatricyclo[22.3.1.0^4,9]octacos-18-ene]
